A value given as a limit tells only on which side of the number the result lay.

Sequence of AAK1 (full-length human protein) (Q2M2I8 1-863 isoform Q2M2I8-2): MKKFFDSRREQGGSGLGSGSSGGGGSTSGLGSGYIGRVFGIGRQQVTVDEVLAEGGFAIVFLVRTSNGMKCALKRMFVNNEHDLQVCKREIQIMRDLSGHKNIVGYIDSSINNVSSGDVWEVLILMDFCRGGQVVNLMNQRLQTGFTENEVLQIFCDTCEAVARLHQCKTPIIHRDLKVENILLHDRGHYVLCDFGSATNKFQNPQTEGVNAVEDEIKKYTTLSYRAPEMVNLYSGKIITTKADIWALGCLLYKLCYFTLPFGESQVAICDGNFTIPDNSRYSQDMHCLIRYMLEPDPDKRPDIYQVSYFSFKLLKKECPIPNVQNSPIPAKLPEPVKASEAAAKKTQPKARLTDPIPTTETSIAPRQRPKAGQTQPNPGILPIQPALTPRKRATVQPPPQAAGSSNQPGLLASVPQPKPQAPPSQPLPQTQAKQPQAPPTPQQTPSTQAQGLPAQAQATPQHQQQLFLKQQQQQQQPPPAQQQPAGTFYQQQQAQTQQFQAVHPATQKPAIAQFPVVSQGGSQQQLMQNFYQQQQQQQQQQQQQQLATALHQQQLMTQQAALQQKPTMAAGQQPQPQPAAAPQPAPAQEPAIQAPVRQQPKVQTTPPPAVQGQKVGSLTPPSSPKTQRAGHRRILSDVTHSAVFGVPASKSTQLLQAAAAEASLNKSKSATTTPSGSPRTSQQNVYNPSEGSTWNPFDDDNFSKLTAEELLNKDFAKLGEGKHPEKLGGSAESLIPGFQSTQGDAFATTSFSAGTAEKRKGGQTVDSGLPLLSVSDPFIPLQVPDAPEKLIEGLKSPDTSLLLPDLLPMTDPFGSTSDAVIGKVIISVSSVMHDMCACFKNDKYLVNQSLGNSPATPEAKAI

The target in the first assay is AAK1 (full-length human protein) (Homo sapiens, UniProt Q2M2I8). The experiment in a line: P81 filter plate assay. It is filed as biochemical. The note with it: 0.2 nM-scale full-length human AAK1, Mu2 substrate, 33P-ATP, one hour at room temperature; class symbols. How it is done:
Compounds were serially diluted into a Labcyte LDV plate (Labcyte, cat# LP-0200) using a Mutiprobe (PerkinElmer) and Biomek FX (Beckman Coulter) so that the highest compound concentration was at 96 μM. Compounds were then pinged (75 nL per well) into a Greiner 384-well reaction plate (Greiner, #781076) using an ECHO 550 Liquid Handler (Labcyte). A total of 12 μl reaction buffer (IMAP buffer containing Tween and DTT, from Molecular Devices) was then added to each well of columns 1 and 13 for the negative controls and 12 μl of 2×AAK1 (0.2 nM full-length human protein, NCBI accession no. NP_055726.2) was added to the remaining wells. Enzyme was then pre-incubated with compound for 10 minutes at room temperature. Reactions were initiated upon Minitrak (PerkinElmer) addition of 12 μl substrate mix containing 2× Mu2 (0.2 μM, full length human protein), 2× cold ATP (2 μM), and 1.3 μCi of hot ^33P-ATP. Reactions proceeded for one hour at room temperature. Meanwhile, Millipore 384-well P81 filter plates (Millipore, catalog # MZPHN0 W10) were placed on a plate washer (Zoom ZW, from Titertek) and pre-wet with 50 μl 1% phosphoric acid. Kinase reactions were then stopped upon addition of 24 μl of 2% phosphoric acid to each well and the Minitrak was then used to transfer 40 μl from each well into the pre-wet Millipore 384-well P81 filter plates. Reaction mixtures were incubated for 10 minutes at room temperature in the P81 plates, followed by washing five times with 100 μl/well of 1% phosphoric acid using the Zoom filter washer. The bottom of each filter plate was sealed followed by addition of 20 μl Microscint 40 to each well, sealing the top of the plates with Flashplate cover, and then waiting one hour until reading on the TopCount (Perkin Elmer).
Compound `Cc1cnc2ccc(-c3ccn(CCC(C)(C)C)c(=O)c3)nn12` [1-(3,3-Dimethylbutyl)-4-(3-methylimidazo[1,2-b]pyridazin-6-yl)pyridin-2(1H)-one] displayed an IC50 of 10 to 100 nM.

For the compound `COc1cnccc1-c1cnc2ccc(-c3cccc(C(=O)CCC(C)C)c3)nn12` [1-(3-(3-(3-Methoxypyridin-4-yl)imidazo[1,2-b]pyridazin-6-yl)phenyl)-4-methylpentan-1-one], the IC50 is at most 10 nM.

`Cc1cnc2ccc(-c3ccn(CCC(C)C)c(=O)c3)nn12` [1-Isopentyl-4-(3-methylimidazo[1,2-b]pyridazin-6-yl)pyridin-2(1H)-one] returned an IC50 of at most 10 nM.

Compound `COc1nc(C)ccc1-c1cnc2ccc(-c3ccn(CCC(C)C)c(=O)c3)nn12` [1-isopentyl-4-(3-(2-methoxy-6-methylpyridin-3-yl)imidazo[1,2-b]pyridazin-6-yl)pyridin-2(1H)-one] registered an IC50 of at most 10 nM.

`COc1ncccc1-c1cnc2ccc(-c3ccn(CCC(C)C)c(=O)c3)nn12` [1-isopentyl-4-(3-(2-methoxypyridin-3-yl)imidazo[1,2-b]pyridazin-6-yl)pyridin-2(1H)-one] returned an IC50 of at most 10 nM.

As to `COc1ncccc1-c1cnc2ccc(-c3cnn(CC(C)(C)C)c3)nn12` [3-(2-Methoxypyridin-3-yl)-6-(1-neopentyl-1H-pyrazol-4-yl)imidazo[1,2-b]pyridazine], the IC50 is at most 10 nM.

`CC(C)CCn1cc(-c2ccc3ncc(Br)n3n2)cn1` [3-Bromo-6-(1-isopentyl-1H-pyrazol-4-yl)imidazo[1,2-b]pyridazine] came in with an IC50 of at most 10 nM.

Compound `CC(C)(C)Cn1cc(-c2ccc3ncc(Br)n3n2)cn1` [3-Bromo-6-(1-neopentyl-1H-pyrazol-4-yl)imidazo[1,2-b]pyridazine] showed a concentration for half-maximal inhibition (IC50) of 10 to 100 nM.

`CC(C)(C)Cn1cc(-c2ccc3ncc(Cl)n3n2)cn1` [3-Chloro-6-(1-neopentyl-1H-pyrazol-4-yl)imidazo[1,2-b]pyridazine] had an IC50 of 10 to 100 nM.

Regarding `CCOc1ncccc1-c1cnc2ccc(-c3ccn(CCC(C)C)c(=O)c3)nn12` [4-(3-(2-Ethoxypyridin-3-yl)imidazo[1,2-b]pyridazin-6-yl)-1-isopentylpyridin-2(1H)-one], the IC50 was at most 10 nM.

Compound `COc1ncc(F)cc1-c1cnc2ccc(-c3ccn(CCC(C)C)c(=O)c3)nn12` [4-(3-(5-Fluoro-2-methoxypyridin-3-yl)imidazo[1,2-b]pyridazin-6-yl)-1-isopentylpyridin-2(1H)-one] registered a half-maximal inhibitory concentration (IC50) of at most 10 nM.

In the case of `CC(=O)c1cnc2ccc(-c3ccn(CCC(C)C)c(=O)c3)nn12` [4-(3-Acetylimidazo[1,2-b]pyridazin-6-yl)-1-isopentylpyridin-2(1H)-one], the IC50 lay in the range of 10 to 100 nM.

As to `CC(C)CCn1ccc(-c2ccc3ncc(Br)n3n2)cc1=O` [4-(3-Bromoimidazo[1,2-b]pyridazin-6-yl)-1-isopentylpyridin-2(1H)-one], the IC50 was at most 10 nM.

Compound `CC(C)CCn1ccc(-c2ccc3ncc(Cl)n3n2)cc1=O` [4-(3-Chloroimidazo[1,2-b]pyridazin-6-yl)-1-isopentylpyridin-2(1H)-one] had an IC50 of at most 10 nM.

The compound `COc1ncccc1-c1cnc2ccc(-c3cnn(CCC(C)C)c3)nn12` [6-(1-Isopentyl-1H-pyrazol-4-yl)-3-(2-methoxypyridin-3-yl)imidazo[1,2-b]pyridazine] registered an IC50 of at most 10 nM.

`CC(C)CCn1cc(-c2ccc3nccn3n2)cn1` [6-(1-Isopentyl-1H-pyrazol-4-yl)imidazo[1,2-b]pyridazine] came in with an IC50 of 100 to 1000 nM.

`COc1ncccc1-c1cnc2ccc(-c3ccn(C[C@@H](N)CC(C)C)c(=O)c3)nn12` [(S)-1-(2-Amino-4-methylpentyl)-4-(3-(2-methoxypyridin-3-yl)imidazo[1,2-b]pyridazin-6-yl)pyridin-2(1H)-one] gave an IC50 of 10 to 100 nM.

The compound `CC(C)C[C@H](N)Cn1ccc(-c2ccc3ncc(Br)n3n2)cc1=O` [(S)-1-(2-Amino-4-methylpentyl)-4-(3-bromoimidazo[1,2-b]pyridazin-6-yl)pyridin-2(1H)-one] came in with an IC50 of 100 to 1000 nM.

`CC(C)C[C@H](N)Cn1ccc(-c2ccc3ncc(Cl)n3n2)cc1=O` [(S)-1-(2-Amino-4-methylpentyl)-4-(3-chloroimidazo[1,2-b]pyridazin-6-yl)pyridin-2(1H)-one] returned a half-inhibitory concentration (IC50) of 100 to 1000 nM.

Consider `COc1ncccc1-c1cnc2ccc(-c3cnn(C(=O)OC(C)C)c3)nn12` [Isopropyl 4-(3-(2-methoxypyridin-3-yl)imidazo[1,2-b]pyridazin-6-yl)-1H-pyrazole-1-carboxylate], for which the IC50 was at most 10 nM.

Still in this assay, the particulars now being: same assay, given as numeric bound instead of class symbol.
`CC(C)(C)Cn1cc(-c2ccc3nccn3n2)cn1` [6-(1-Neopentyl-1H-pyrazol-4-yl)imidazo[1,2-b]pyridazine] yielded an IC50 of over 300 nM.

`Cc1cnc2ccc(-c3ccn(C[C@@H](N)CC(C)C)c(=O)c3)nn12` [(S)-1-(2-Amino-4-methylpentyl)-4-(3-methylimidazo[1,2-b]pyridazin-6-yl)pyridin-2(1H)-one] yielded an IC50 of over 300 nM.

Consider `CC(C)C[C@H](N)Cn1ccc(-c2ccc3nccn3n2)cc1=O` [(S)-1-(2-Amino-4-methylpentyl)-4-(imidazo[1,2-b]pyridazin-6-yl)pyridin-2(1H)-one], for which the concentration for half-maximal inhibition (IC50) is over 300 nM.

In turn, `CC(C)C[C@@H](Cn1ccc(-c2ccc3nccn3n2)cc1=O)N1C(=O)c2ccccc2C1=O` [(S)-2-(1-(4-(Imidazo[1,2-b]pyridazin-6-yl)-2-oxopyridin-1(2H)-yl)-4-methylpentan-2-yl)isoindoline-1,3-dione] had an IC50 of over 300 nM.

Take `CC(C)OC(=O)n1cc(-c2ccc3nccn3n2)cn1` [Isopropyl 4-(imidazo[1,2-b]pyridazin-6-yl)-1H-pyrazole-1-carboxylate]: the IC50 is over 300 nM.

As a reminder, the IC50 is the midpoint of a concentration-inhibition curve.
